From US20110053833A1, “SYNTHETIC PEPTIDES AND THEIR USE” (priority 2007, published 2011) come the findings set out here.

What all share (type): cell-based
The subject of one assay is E. coli. The assay can be described thus: Microbicidal activity, peptides incubated with E. coli for 2 h in BP. The note with it: 2 h incubation in BP; two fold dilution steps starting at 100 μg/ml. How it is done:
(§1) The peptides were incubated with E. coli, S. aureus or C. albicans for 2 h in BP. The peptides were diluted in two fold steps starting at 100 μg/ml or 200 μg/ml (C. albicans).

A further assay has as its system S. aureus. Nature of the assay: Microbicidal activity, peptides incubated with S. aureus for 2 h in BP. The note with it: 2 h incubation in BP; two fold dilution steps starting at 100 μg/ml. How it is done: as §1
Another assay concerns C. albicans. Nature of the assay: Microbicidal activity, peptides incubated with C. albicans for 2 h in BP. The settings on record: 2 h incubation in BP; two fold dilution steps starting at 200 μg/ml. How it is done: as §1
The subject of assay [1] is E. coli, S. aureus or C. albicans. Nature of the assay: Microbicidal activity, overall comparison with native hLF-derived peptide. The settings on record: versus HLBD1. How it is done:
as §1

On to “EATKCFQWKRNMRKVRGPPVSCIKR (EATKCFQWKRNMRKVRGPPVSCIKR; a fragment of human lactoferrin corresponding to aa 16-40 wherein one aa has been substituted) [HLBD1Q24K, synthetic peptide according to the present invention]”, for which the “MMC99% E. coli” value in the assay on E. coli came out at 12 µg/mL. For the same substance, the “MMC99% S. aureus” value with S. aureus was 25 µg/mL. For the same substance, the “MMC99% C. albicans” value with C. albicans was found to be 50 µg/mL. The “microbicidal activity compared with the corresponding peptide derived from the sequence of native hLF” value in assay [1] is “considerably higher”.

“EATKCFQWQRNMRKVRGPPVSCIKR (EATKCFQWQRNMRKVRGPPVSCIKR; a fragment of human lactoferrin corresponding to aa 16-40 wherein two aa has been substituted) [HLBD1, reference compound]”: the “MMC99% E. coli” value in the assay on E. coli amounted to 50 µg/mL. Further, in the assay with S. aureus, the “MMC99% S. aureus” value is 50 µg/mL. The “MMC99% C. albicans” value with C. albicans is 200 µg/mL.
